Results taken from ChEMBL document CHEMBL3507680, “University of Dundee, Gates Library screen for HepG2 cell viability”.

Experiment: Human HepG2 cell viability assay in 384 well format
Format: toxicity, cell-based
Design: dose 125 nL, time 70.5 hour; cytotoxicity at 70.5 h: concentration not given beside the values
Settings: HepG2 cells, read-out: Inhibition

Row | Structure (SMILES) | cytotoxicity at 70.5 h [%]
1 | O=C([C@@H]1C[C@@H]2CCN(C3CCOCC3)C[C@H]2O1)N1CCCC1 | -4.52
2 | Cc1ccc(NCc2cnc3n2CCN(c2ncccn2)CC3)nn1 | -2.11
3 | CN(C)C(=O)CN1C[C@@H]2OCCN(c3ncc(F)cn3)[C@@H]2C1 | 0.597
4 | O=C([C@@H]1C[C@@H]2CCN(C3CCOCC3)C[C@@H]2O1)N1CCOCC1 | -7.48
5 | Cc1noc([C@@]23CCO[C@@H]2CCN(C(=O)CCC(C)C)C3)n1 | 1.83
6 | Cc1noc([C@@]23CCO[C@@H]2CCN(C(=O)c2c(C)noc2C)C3)n1 | -1.33
7 | O=C(c1ccco1)N1CCN2C[C@H](Oc3cncnc3)C[C@H]2C1 | 12.4
8 | COc1cc(N2CCn3cc(CNc4ccccn4)nc3C2)ncn1 | 2.02
9 | CCc1cnc(N2C[C@H]3C[C@H](C(=O)NCC(C)C)[C@@H](C2)O3)nc1 | 2.56
10 | CCc1cnc(N2C[C@H]3C[C@H](C(=O)NC4CCC4)[C@@H](C2)O3)nc1 | -1.31
11 | CCc1cnc(N2C[C@H]3C[C@H](C(=O)NC)[C@@H](C2)O3)nc1 | -1.27
12 | Cn1cc(CN2CCc3ncn(C)c3C2COCc2cccnc2)cn1 (stereo not drawn) | -0.736
13 | CCC1=N[C@@]2(CC[C@@H]3CN(C(=O)NCC(C)C)C[C@@H]32)C(=O)N1CC1CC1 | -2.4
14 | Cc1noc([C@@]23CCO[C@@H]2CCN(C(=O)CN(C)C)C3)n1 | -0.0937
15 | O=C(c1ccsc1)N1CCc2c(CNc3nccs3)n[nH]c2C1 | -2.81
16 | Cc1nnc([C@H]2CC[C@@H]3[C@@H](CCN3Cc3c(C)noc3C)O2)o1 | -5.84
17 | CN(C)CCOCC1CN(C(=O)[C@H]2CCCO2)Cc2ccnn2C1 (stereo partly drawn) | -1.09
18 | CN(C)C(=O)N1CCc2c(CNc3ncccn3)cncc2C1 | -2.83
19 | CCS(=O)(=O)N1CCC2(CC(=O)N(c3cccc(C)c3)C2)C1 (stereo not drawn) | -4.67
20 | O=C(N[C@@H]1CN(c2ncccn2)[C@@H]2CCCO[C@@H]21)c1cnccn1 | -1.73
21 | O=C([C@H]1C[C@H]2OCC[C@H]2N(C(=O)C2CCOCC2)C1)N1CCCCO1 | -2.55
22 | CC(C)NC(=O)[C@@H]1CCO[C@@H]2CCN(c3ncccn3)C[C@H]21 | 0.612
23 | O=C([C@H]1C[C@H]2OCC[C@H]2N(Cc2ccncc2)C1)N1CCCCO1 | -0.173
24 | O=C([C@H]1COC[C@H]2CN(Cc3ccco3)C[C@H]21)N1CCCO1 | 5.11
25 | CCc1cnc(N2CC3(CCN(C(=O)c4ccoc4)C3)C2)nc1 | -1.44
26 | COCC1CN(C(=O)CNC(C)=O)Cc2ncnn2C1 (stereo not drawn) | -8.02

Row | Structure (SMILES) | cytotoxicity at 70.5 h [%]
27 | CC(=O)N1[C@H](Cn2cncn2)C[C@@H]2CN(S(C)(=O)=O)CC[C@@H]21 | -8.6
28 | Cn1cc(CN2CC[C@H]3C[C@H](c4nc(C5CC5)cs4)O[C@@H]3C2)cn1 | -12.5
29 | Cn1ccnc1CN1CCC2(COCCN(Cc3ccsc3)C2)C1 (stereo not drawn) | -11.4
30 | Cc1ccc2c(c1)CCC21CCN(C(=O)CO)CC1 | -8.48
31 | COCC1CN(Cc2ccc(C)o2)Cc2ncn(CC3CC3)c21 (stereo not drawn) | -8.02
32 | CCN1C(=O)C2(CCOCC2)c2cc(NC(=O)c3ccco3)ccc21 | -8.84
33 | O=C(C1=CC2(CCNCC2)c2ccccc21)N1CCCC1 | -14.7
34 | O=C(c1cnccn1)N1CCN2C[C@H](OCc3ccccn3)C[C@H]2C1 | -10.5
35 | O=C(C1CCOCC1)N1CCc2ncnc(-c3ccc(F)cc3)c2CC1 | -11.3
36 | O=C(C1CCC1)N1CCC2(COCc3cnc(N4CCOCC4)nc32)C1 (stereo not drawn) | 8.28
37 | CN(C)CC(=O)N1Cc2nc(C(=O)NCc3ccncc3)oc2C1 | -14.7
38 | COCCNC(=O)[C@@H]1CC[C@@H]2[C@@H](CCN2Cc2cnn(C)c2)O1 | -18.7
39 | O=C(C1=CCCC1)N1CCO[C@H]2[C@@H](OCC3CC3)CC[C@@H]21 | -17.4
40 | Cc1ccoc1C(=O)N1CC[C@H]2O[C@@H](C)C[C@H]2C1 | -10.2
41 | Cc1noc(C)c1CN1CC[C@H]2OCC[C@@H](C(=O)N3CCCO3)[C@@H]2C1 | -14.6
42 | CC(C)N(C)C(=O)C1=NOC2(CCN(C(=O)c3ccccn3)C2)C1 (stereo not drawn) | -9.35
43 | CC(=O)N1CCC2(CC1)CC(Oc1ccccc1)CO2 (stereo not drawn) | -7.56
44 | CC(C)N1CCOCC2(CN(Cc3ccco3)CCO2)C1 (stereo not drawn) | -8.16
45 | O=C(c1ccsc1)N1CCc2c(COCc3ccncc3)cncc2C1 | -9.93
46 | CN(C)C(=O)CN1CCC2(CC1)CN(S(C)(=O)=O)Cc1ccccc1O2 | -4.65
47 | CCn1ncc(CN2CCCC(n3c(=O)oc4ccccc43)C2)c1C (stereo not drawn) | -3.68
48 | c1ccc(NCc2cn3c(n2)CNCC3)nc1 | 2.18
49 | Cc1cccc(N2CCc3ncc(CNS(C)(=O)=O)n3CC2)n1 | -11.6
50 | CN(C)C(=O)[C@H]1C[C@@H]2CCN(C3CCOCC3)C[C@@H]2O1 | -2.42
51 | Cc1ccccc1C(=O)N1CCO[C@H]2[C@H](OCCN(C)C)CC[C@@H]21 | -2.16
52 | O=C([C@@H]1C[C@@H]2CCN(C3CCOCC3)C[C@@H]2O1)N1CCCC1 | -5.63

Row | Structure (SMILES) | cytotoxicity at 70.5 h [%]
53 | Cc1cc(C(=O)N2CCO[C@H]3[C@H](OCCN(C)C)CC[C@@H]32)c(C)[nH]1 | -9.02
54 | CN(C)C(=O)COCC1CN(S(C)(=O)=O)Cc2ncn(C)c21 (stereo not drawn) | -6.55
55 | Fc1ccc(CN2CCCn3cnc(COCC4CC4)c3C2)cc1 | 2.87
56 | COc1ccc(CN2CCCn3cnc(COCC4CC4)c3C2)cc1 | 1.46
57 | COCCN1C[C@@H](C)[C@@]2(COCCN(C(=O)c3cccs3)C2)C1 | 1.58
58 | CC(C)OCc1ncn2c1CN(Cc1cnn(C)c1)CCC2 | 0.691
59 | COCc1cnc2n1CCN(C1CCC1)C2C (stereo not drawn) | -2.01
60 | CO[C@@H]1CCN(S(=O)(=O)c2cn(C)cn2)[C@H]1Cc1ccncc1 | 4.82
61 | COc1ncnc2c1CCN(Cc1cccs1)CC2 | -2.23
62 | CN(C)C(=O)[C@@H]1CCO[C@@H]2CCN(c3ncccn3)C[C@@H]21 | -2.08
63 | O=C(C1CC1)N1CCC[C@]2(C[C@@H](OCc3ccncc3)CO2)C1 | 0.889
64 | O=C(c1ccccc1)N1CCC[C@]2(C[C@@H](OCc3ccncc3)CO2)C1 | -4.9
65 | CO[C@@H]1CCN(c2nnc(C)s2)C[C@@H]1Cc1ccccc1 | -2.42
66 | CNC(=O)c1nc2c(s1)CCN(C(=O)c1cccnc1)CC2 | -0.11
67 | Cc1ccc(CN2CCc3ncnc(C4CCOC4)c3CC2)s1 (stereo not drawn) | 2.16
68 | Cn1cc(CN2CCn3cc(CNC(=O)C4CCC4)nc3C2)cn1 | 2.26
69 | Cc1ccc(C(=O)N2CCC3(CC2)NC(=O)CC3c2ccccc2)cn1 (stereo not drawn) | 5.79
70 | O=C1NC(c2ccccc2)=N[C@@]12CC[C@@H]1CN(Cc3ccccc3)C[C@@H]12 | 0.309
71 | O=S(=O)(c1cccs1)N1CCCn2nnc(CN3CCCCC3)c2C1 | 0.152
72 | CC(=O)N1CC(=O)N(c2ccccc2)CC12CCN(Cc1cccs1)C2 (stereo not drawn) | -5.96
73 | CN(C)CCN1C[C@@H]2CN(C(=O)c3ccsc3)C[C@@H]2C1=O | -2.41
74 | CN(C)Cc1cc(=O)n2c(n1)CN(C(=O)Cc1ccsc1)CCC2 | -12.5
75 | CN1CCN(C(=O)Cc2cccc(F)c2)Cc2cccnc21 | -5.94
76 | Cc1ccc2c(n1)N(C)CCN(C(=O)NC1CC1)C2 | 25.2
77 | CCN(C)c1ncnc2c1CCN(C(=O)N1CCCC1)CC2 | -12.4
78 | CC(C)CN1CCC2(C=C(C(=O)N3CCCC3)c3ccccc32)CC1 | -15.8

Row | Structure (SMILES) | cytotoxicity at 70.5 h [%]
79 | O=C([C@@H]1CC[C@@H]2[C@@H](CCN2Cc2cccc(F)c2)O1)N1CCCCO1 | 5.95
80 | CCS(=O)(=O)N1CCOC2(CCCN(c3ccc(C)nn3)C2)C1 (stereo not drawn) | -11.8
81 | CN1CCN(C(=O)NC2CC2)Cc2cccnc21 | 0.459
82 | Cc1noc(C)c1CN1CC[C@H]2OCC[C@@H](C(=O)NCC3CC3)[C@@H]2C1 | -3.12
83 | CC(C)n1cnc2c1C(C(=O)NCCC#N)N(Cc1ccccc1)CC2 (stereo not drawn) | -16.7
84 | CCOCC1CN(C(=O)c2ccncc2)Cc2nn(C)cc21 (stereo not drawn) | -18
85 | CN(C)c1ncc2c(n1)C1(CCN(CC3CC3)C1)COC2 (stereo not drawn) | -8.15
86 | Cc1ccc(CN2CC3(CCN(C(=O)c4cscn4)C3)C2)s1 | -7.12
87 | CS(=O)(=O)N1CCOCC2(CN(Cc3ccco3)CCO2)C1 (stereo not drawn) | -3.82
88 | CCc1ccc(CN2CCc3ncnc(-c4cccnc4)c3CC2)o1 | -6.08
89 | c1cncc(COCc2nnn3c2CN(Cc2ccsc2)CC3)c1 | -2.9
90 | c1cc(CN2CC[C@H]3CO[C@H](CN4CCOCC4)[C@H]3C2)cs1 | -11.2
91 | Cc1ccc(C(=O)N2CCN3C[C@H](Oc4cccc(F)c4)C[C@H]3C2)cn1 | -2.95
92 | COCC1CN(Cc2cc(C)on2)Cc2cnn(C)c21 (stereo not drawn) | -3.91
93 | Cn1ccnc1CN1CCC2(CC1)CC(Oc1cccnc1)C2 | 1.72
94 | Cc1ccc(CN2CCCC3(COCCN(Cc4c[nH]nn4)C3)C2)o1 (stereo not drawn) | 0.0506
95 | CN1CCN(C(=O)c2nc3c(o2)CN(C(=O)c2cccnc2)C3)CC1 | -6.31
96 | COCC1CN(Cc2ccncc2)Cc2nnn(CC3CC3)c21 (stereo not drawn) | -10.7
97 | COCCN1CCC2(CC1)CC(COC)N(c1ncccn1)C2 (stereo not drawn) | -9.91
98 | Fc1ccccc1CN1C[C@@H](OCc2ccncc2)[C@H]2OCCC[C@H]21 | -12.8
99 | CN1CCN(Cc2cn3c(n2)CN(C(=O)N2CCOCC2)CC3)CC1 | -3.86
100 | CN(C)[C@@H]1CCN(c2ncccn2)[C@H]1Cc1ccncc1 | -5.48
101 | Cc1ccc(CN2CCn3c(CN4CCN(C)CC4)cnc3C2C)s1 (stereo not drawn) | 21.3
102 | CC1c2ncc(CN3CCN(C)CC3)n2CCN1Cc1ccsc1 (stereo not drawn) | -0.917
103 | c1cnc(NCc2noc3c2CN(CCN2CCCC2)CC3)nc1 | -7.61
